This is an account of results in paper PMC9714824, “Hexapeptides from mammalian inhibitory hormone hunt activate and inactivate nematode reproduction” (PLOS ONE, 2022).

The test system of test [1] is Steinernema siamkayai. Description: Steinernema siamkayai reproduction and development on lipid agar plates with hexapeptides. It counts as in vivo. Details: key to Infective juveniles / Adults: counts per plate, scaled from 0.05 ml subsamples to 20 ml. The source says: (§1) The attempt was made here to replicate prior fecundity work in another species of nematode, the entomopathogenic (insect slaying) Steinernema siamkayai. Species confirmation involved standard morphological and molecular techniques (S3 File, Nematodes). S. siamkayai is a biocontrol agent of potential economic significance in global agriculture, reducing the need for pesticides. Crucial for deployment is the production of ‘infective juveniles’. These forms penetrate the larvae of insect pests, releasing a bacterium, Xenorhabdus spp., which ultimately kills the larvae. Stock solutions (5 mg mL^-1) of EPL036 (IEPVFT) and EPL630 (KLKMNG) were made up and stored at −20 °C. Lipid Agar plates were prepared by pouring 5 ml media in 60 mm plastic Petri dishes. The plates were inoculated with an overnight-grown bacterial culture of Xenorhabdus spp. (10^9 cfu/ml) at 100 μl/plate and incubated at 28 °C for 24h. Xenorhabdus bacteria are symbiotically associated with S. siamkayai. While multiplying, Xenorhabdus metabolises the constituents of the lipid agar and the resulting by-products are the food supplement for the nematodes that triggers the worms to grow and multiply. From the stock solutions, peptides were introduced individually into the centre of the Lipid Agar plates with Xenorhabdus lawn. Two concentrations of peptide were used, 4 and 8 μL of the 5 mg mL^-1 stock peptide solutions (making 20 and 40 μg of peptide per plate in total, respectively, i.e. ~6 and ~12 μM). Each peptide solution was uniformly spread using an L shaped spreader and allowed to absorb into the agar plate for 10 minutes. Nematodes were harvested beforehand as follows. Third-stage infective juveniles (IJs) of S. siamkayai were used to infect fourth instar Galleria larvae. Following larval death, the Galleria cadavers were placed on a White’s Trap to harvest fresh progeny within 5–6 days. After storage in sterile water, these new-generation IJs were concentrated and inoculated on the bacterial plates on Day 1 at 500 and 1000 IJs /plate. The eight treatments (two inocula at two peptide concentrations) and two controls (two inocula without peptides) were replicated (x3) and incubated at 28 °C. Observations of behaviour and morphology were made at intervals throughout the study, then on Day 5 (i.e. after 4 units of 24h) the nematodes were harvested. Two ml of distilled water was poured on each Petri dish and gently stirred to release the nematodes from the surface. The surface washings containing suspended nematodes were collected in a standard volume of 20 ml of distilled water. The number of mature adults (male and female) and the second-generation juveniles (J1, J2, J3 and pre-adults) were counted using a dissecting microscope (x10 magnification, 4 fields) in 0.05 ml subsamples (x3) and multiplied up to the standard volume of 20 ml.
Fig 2 Developmental impact on Steinernema siamkayai of hexapeptides after 4 days. INOCULUM = founding population of infective juveniles (IJs). ‘Infective juveniles’ on the vertical axis are mostly second-generation IJs. Peptides applied at the start of the study were EPL036 = IEPVFT, […] = KLKMNG. Total = Adults + Infective juveniles. Data are mean +/- SEM (average of 3 replicates). Statistical analysis: ANOVA. Control bars are doubly represented for ease of comparison. Note different vertical axes. […]

The test system of test [2] is Steinernema siamkayai. Description: Nematode pilot study fecundity (S3 Table 1). In kind it is in vivo. Particulars: inoculum 5 IJs.
Description: as §1
Mean number of A) Infective juveniles and B) Adults following inoculation of Petri dishes treated with EPL036 and EPL630 at 4 µL and 8 µL and an untreated control; Petri dishes were initially inoculated with 5 infective juveniles of Steinernema siamkayai following the method used in the main manuscript (Single way ANOVA presented beneath each data set).

The test system of the next test is Caenorhabditis elegans. Particulars: in words; cited from earlier work. The source says:
As a control compound there was synthesized EPL030, having the aa sequence KLKMNGKNIEPVFT. This is a scrambling of EPL001’s sequence, based on cards drawn at random by one of us (CRM). […] The figures for fecundity were EPL001 +43 ... || Returning to EPL030, the scrambled-sequence EPL001 comparator, this has engendered perplexity by displaying the same activity as EPL001 across multiple mammalian systems. Thus, EPL030 suppressed human prostate cancer cells in vitro more than EPL001 in two laboratories and the proliferation of rat bone marrow cells in vitro in a third.

The test system of test [3] is human marrow derived mesenchymal stem cells (hMSCs). The test is described as follows: Peptide immobilisation studies, hMSC proliferation (CyQuant) and FACS. In kind it is cell-based. Particulars: alanine substitution study; for Mean cell number: N-terminally tethered, seeding 5,000 cells per well, CyQuant, mean +/− SEM, n = 3. The source says:
Could the antiproliferative activity in vitro of EPL001 in solution be more predictably evoked and investigated more readily if the peptide is instead tethered to the cell culture’s substratum? […] In the first study EPL001 was immobilised by either its N terminus or C terminus and human stem cells exposed accordingly. This followed a confirmation of dissolved EPL001’s antiproliferative activity in the same laboratory (JAH). In the second study, aa sections of EPL001 were substituted with alanine strings prior to tethering, to define a functional biological motif. Into the base of each well of a 24-well plate was inserted a glass coverslip (13mm diameter, borosilicate glass, SLS, Nottingham, UK), upon the upper surface of which had been immobilised an individual peptide using a bioconjugate technique. During preparation of the coverslips, the surfaces were modified with carboxyl (−COOH) or amine (−NH2) groups separately using a published method. The carboxyl on the coverslips or at the end of the peptide sequence were reacted with NHS in the presence of EDC, resulting in a semi-stable NHS ester, which could then be reacted with primary amines (−NH2) on the coverslips or at the end of the peptide sequences to form amide crosslinks. For the carboxyl modified coverslips, the final peptide grafted on to the surface via its NH2 terminus was in the form Glass-CO-NH-Peptide. For the amine modified coverslips, the final peptide grafted on to the surface via its COOH terminus was in the form Glass-NH-CO-Peptide. The concentration of the peptides across the glass was approximately […]. Uncoated glass was used as the reference control. Treatments were in triplicate (i.e. n = 3). The cells used were human marrow derived mesenchymal stem cells (hMSCs, Lonza, Slough, UK, cat No PT-2507). In the EPL001-terminus study they were seeded at 10,000 cells per well; in the alanine substitution study the density was 5,000 cells per well. The cells were maintained in DMEM with 10% FSC. EPL001 and three alanine-substituted versions of it were deployed separately: MKPLTGKVKEFNNI (EPL001), AAAAAGKVKEFNNI (EPL590), MKPLTAAAAEFNNI (EPL545) and MKPLTGKVKEAAAA (EPL104). The peptides in the alanine substitution study were N-terminally tethered to the substrate. Cell numbers were measured by CyQuant® (Invitrogen, Paisley, UK). […] Statistical analysis was by ANOVA using SPSS software.
Four 14-aa peptides were synthesised: MKPLTGKVKEFNNI (EPL001), AAAAAGKVKEFNNI (EPL590), MKPLTAAAAEFNNI (EPL545) and MKPLTGKVKEAAAA (EPL104). The peptides were generated from l-isomer amino acids by solid phase peptide synthesis (Model 9050, Milligen). All peptides were N-terminally tethered to the substrate by a bioconjugate technique. MSCs were derived from human bone marrow and maintained in DMEM with 10% FSC. Cells were seeded on peptide treated surfaces including a glass control in a 24-well plate with cell density 5 x 10^3. The growth inhibitory activity was examined via cell proliferation assays and cell cycle analysis, using PI and Ki-67 staining. The cell phenotype and viability (7-AAD) were analysed by flow cytometry.

The subject of the next test is DU145 cells. The test is described as follows: MTS viable cell assay, DU145 (Epistem). In kind it is cell-based, human. The settings on record: in words. On the procedure: Further assays on human prostate cancer cells were conducted at a contract research organisation (Epistem, Manchester, UK). LNCaP or DU145 cells seeded at 3,000 cells/well across a 96-well plate were cultured in RPMI (phenol red free), 10% FCS, 1% sodium pyruvate, Pen/strep and L-glutamine for 24h before exposure to peptides, at a single dose level in the case of LNCaPs or multiple dose levels in the case of DU145s. (For dose levels see Results.) Controls received vehicle (1% PBS). For the DU145s peptide administration was repeated after 24h. 72h after the first administration (DU145s) or only administration (LNCaP) total viable cell numbers were measured colorimetrically (MTS) using a CellTiter 96 AQueous One Solution Cell Proliferation Assay (Promega, Southampton, UK), following manufacturer’s instructions. Briefly, the media on the plates was replaced with the CellTiter reagent diluted 1:5 in DMEM. The plates were returned to the incubator for 3 hours before reading absorbance at 492 nm on a FLUORstar OPTIMA (BMG Labtech). CellTiter data are the absorbance minus background values (CellTiter plus DMEM), expressed as (OD mean +/− SEM). Statistical analysis was by ANOVA, Dunnett’s multiple comparisons test.
(Formazan colour is commonly taken as a measure of viable cells.)

A further test has as its system hMSCs. Details: method as in earlier work. The settings on record: EPL001 0.15µM or EPL140 15µM, three days; cited from earlier work.
For test [4], the system named is hDPSC (Human Dental Pulp Derived Mesenchymal-Like Stem/Progenitor Cells). Details: method as in earlier work. Particulars: EPL001 0.15µM or EPL140 15µM, three days; cited from earlier work.

Turning to KLKMNG [EPL630, KLKMNG, EPL030 Front 6], the Adults with Steinernema siamkayai [1] (S3 Table 2, 8 µL, inoculum 500, mean of 3 reps) was determined as 363; in the test on Steinernema siamkayai [2] (4 µL, mean of 9 reps) it was 1.9; in the test with Steinernema siamkayai [2] (4 µL, rep 1), 1; in the test on Steinernema siamkayai [2] (4 µL, rep 2), 1; with Steinernema siamkayai [2] (4 µL, rep 3), 2; in the test with Steinernema siamkayai [2] (4 µL, rep 4) it was 2. In addition, the Adults in the test with Steinernema siamkayai [2] (4 µL, rep 5) was determined as 2; in the test on Steinernema siamkayai [2] (4 µL, rep 6) it was 3; in the test on Steinernema siamkayai [2] (4 µL, rep 7), 2; in the test on Steinernema siamkayai [2] (4 µL, rep 8), 2; in the test with Steinernema siamkayai [2] (4 µL, rep 9), 2; in the test on Steinernema siamkayai [2] (8 µL, rep 1), 4. The substance also returned an Adults with Steinernema siamkayai [2] (8 µL, rep 2) of 5. Also, the “Egg production in females” value with Steinernema siamkayai [1] (compared with untreated controls, 48h exposure (Fig 3)) is recorded as “markedly below that of controls”. For the same substance, the “Adults as % of the population at termination” value in the test on Steinernema siamkayai [1] (controls ~23%) was 26–29%. Further, the “Time after incubation to fully grown males and females” value in the test on Steinernema siamkayai [1] (observational) amounted to 48 h. Further, the “Time for infective juveniles to transform into pre-adults” value with Steinernema siamkayai [1] (observational) is reported as “about 36 h”. The same substance returned an Infective juveniles in the test with Steinernema siamkayai [2] (4 µL, mean of 9 reps) of 10.1.

As for “KLKNMGNKIEPVFT [EPL040, Scrambled EPL001 control]”, the “Fecundity effect in C. elegans” value with Caenorhabditis elegans was “anti-fecundity”.

Turning to “MKPLTAAAAEFNNI [EPL545, Substituted EPL001; alanines 6–9]”, in test [3] (Day 7), the “Cell number vs Glass” value is reported as −29% and the Mean cell number is reported as 10,007 +/−3,281. In test [3] (Day 14), the “Cell number vs Glass” value was −32% and the Mean cell number is on record as 18,055 +/−1,771.

Regarding “MKPLTGKVKEAAAA [EPL104, Substituted EPL001; alanines 11–14]”, the “Mean cell number below that of EPL001-N” value in test [3] (14 days) stood at 16%. Further, in test [3] (Day 7), the “Cell number vs Glass” value was −29% and the Mean cell number was 10,010 +/−4,427. In test [3] (Day 14), the “Cell number vs Glass” value is listed as −37% and the Mean cell number was 16,736 +/−1,302. Also, in test [3] (FACS, PI, 86% for glass control), the “Number of cells in the G0/G1 phase” value was determined as 90%. For the same substance, the “Ki67 staining, % of cells” value in test [3] (at termination, control cells 26.95%) came out at 12.69%.

For “MKPVFNNI [EPL801, EPL601 with all of the C-terminal triplet NNI from sSgII-70]”, the Cell inhibitory activity entry in the test on DU145 cells is “inactive”.

Turning to “MLKTGEKPNKFNNI [EPL140, Variant of human model compound EPL141, with KF instead of FK]”, in the test with hMSCs, the Bmal1 expression entry is “↑”, the OCN expression entry is “↓”, the PPARγ expression result was “↓↓” and the Per2 expression result was “↓”. In addition, in the test with hMSCs, the Rev-ErbA expression result is listed as “↓” and the Sox9 expression entry is “↓↓”. Further, in test [4], the Bmal1 expression result is “↑↑”, the OCN expression result is “↓↓”, the PPARγ expression result was “↓” and the Per2 expression entry was “↑↑”. Also, in test [4], the Rev-ErbA expression result was “↓” and the Sox9 expression result is “(↑)”.
